Test results: article PMC6304572, “Simultaneous Evaluation of the Influence of Panax ginseng on the Pharmacokinetics of Three Diester Alkaloids after Oral Administration of Aconiti Lateralis Radix in Rats Using UHPLC/QQQ-MS/MS” (Evidence-based Complementary and Alternative Medicine : eCAM, 2018)

Legend:
[1] = Stability of the three alkaloids in rat plasma QC samples (4°C, room temperature, freeze-thaw); assay type: in vitro ADME; settings: for Freeze-thaw Accuracy: freeze-thaw three times; for Room temperature stability (24 h) Accuracy: room temperature (about 25°C)
Protocol: Plasma from rats without any processing was used to evaluate the detection methods. 0.1, 0.25, 0.5, 1, 2.5, 5, 10 ng/ml were chosen to calculate standards curve. 0.1, 0.4, 4, 8 ng/mL were selected as the QC sample (n = 4) with repeated operations used to calculate accuracy and precision of the detection method. The data was acquired after keeping the samples at either +4°C 24 hours or room temperature (about 25°C) for 24 hours as well as using freeze-thaw methods (three times) to evaluate stability. Recovery of the developed methods was calculated by the following formula: recovery = measured value/ theoretical value × 100%.

[2] = Pharmacokinetics of three diester alkaloids in rat plasma after oral Aconiti Lateralis Radix extract, with or without 7-day P. ginseng pretreatment; assay type: in vivo, Sprague-Dawley rats; settings: oral Aconiti Lateralis Radix extract 1 g/kg on 8th day
Protocol: Rats were randomly divided into 4 groups: control group, P. ginseng (low, middle, and high) group. 7 days of oral administration of P. ginseng extract was administered at a dosage of 0.1, 1, 10 g/kg for P. ginseng group (low, middle, and high), respectively, once daily. Distilled water was administered at a dosage of 2 ml/kg for control group, simultaneously. On the 8th day, Aconiti Lateralis Radix extracts (1 g/kg) were orally administered to all groups. 0.5 ml plasma samples were collected in 1.5 ml centrifuge tubes (containing heparin sodium) at 10, 30, 60, 90, 120, 240, 480, 720, 1440, and 2880 min. All plasma samples were centrifuged for 15 min at 4000g. The supernatant was separated to another 1.5 ml centrifuge tubes and stored at -20°C.
Liquid-liquid extraction (ethyl acetate) and protein precipitation (50% acetonitrile plus 50% methanol) methods were compared to determine the best method to prepare the plasma sample. Liquid-liquid extraction method was chosen, due to reproducibly high recovery rates. The details of the extraction are as follows: 10 μL carbamazepine (IS) was added to 90 μL plasma, spiked with 400 μL ethyl acetate and the mixture vortexed for 15 seconds. After centrifugation at 12,000g for 10 min, the supernatant was transferred to another 1.5 mL centrifuge tube and dried under a stream of nitrogen at 37°C. The residue was redissolved in 100 μL 50% acetonitrile and centrifuged at 12,000g for 10 min and filtered through a 0.22 μm Micropore membrane. A 5 μL volume of supernatant was injected into LC-MS system for analysis.
Xevo TQ-S (Waters, USA) was utilized for the analysis of all biological samples. Chromatographic separation was conducted on Waters ACQUITY UPLC HSS T3 1.8 μm column (2.1 mm × 100 mm). Column temperature was 45°C and the flow rate was 0.5ml/min. Room temperature was 20 ± 2°C. Phase A consisted of water and 0.1% formic acid (v/v), and phase B consisted of acetonitrile (ACN) 0.1% formic acid (v/v). Column separation was performed by gradient elution: 0-0.5 min, 10% B; 1-2 min, 90% B; 4 min, 10% B.
Electrospray ionization (ESI) and positive ion V mode were used to determine the samples. The main parameters for mass spectrum were set as follows: capillary voltage: 3.5 kv; sample cone: 60 v; source offset: 50 v; source temperature: 150°C; desolvation temperature: 350°C; cone gas flow: 150 L/h; desolvation gas flow: 650 L/h; injection volume: 5 μL.
The data was acquired and analyzed by XEVO-QT-S (Waters). The pharmacokinetic parameters were analyzed by DAS pharmacokinetic program (Version 2.0). SAS statistical software was used to determine the difference between each group. All data was presented as mean ± SD, and P<0.05 was considered statistically significant.

[3] = P. ginseng-high (10 g/kg oral, 7 days)
[4] = P. ginseng-low (0.1 g/kg oral, 7 days)
[5] = P. ginseng-middle (1 g/kg oral, 7 days)
[6] = control group (distilled water 7 days)

COC[C@]12CN(C)[C@@H]3[C@@H]4[C@H](OC)[C@H]1[C@@]3([C@@H](OC)C[C@H]2O)[C@@H]1C[C@@]2(O)[C@H](OC(=O)c3ccccc3)[C@@H]1[C@]4(OC(C)=O)[C@@H](O)[C@@H]2OC [Mesaconitine]
4°C temperature stability (24 h) Accuracy ([1]; QC conc. 0.40 ng/mL): 100.28 ± 8.73%
Freeze-thaw Accuracy ([1]; QC conc. 0.40 ng/mL): 95.09 ± 7.31%
Room temperature stability (24 h) Accuracy ([1]; QC conc. 0.40 ng/mL): 96.34 ± 6.95%
4°C temperature stability (24 h) Accuracy ([1]; QC conc. 4.00 ng/mL): 97.02 ± 9.18%
Freeze-thaw Accuracy ([1]; QC conc. 4.00 ng/mL): 100.37 ± 8.92%
Room temperature stability (24 h) Accuracy ([1]; QC conc. 4.00 ng/mL): 93.68 ± 2.77%
4°C temperature stability (24 h) Accuracy ([1]; QC conc. 8.00 ng/mL): 99.43 ± 4.57%
Freeze-thaw Accuracy ([1]; QC conc. 8.00 ng/mL): 99.59 ± 3.35%
Room temperature stability (24 h) Accuracy ([1]; QC conc. 8.00 ng/mL): 100.72 ± 4.78%
AUC(0-t) [2, 3]: 126.07 ± 44.93^∗∗ μg/L∗h
AUC(0-∞) [2, 3]: 138.96 ± 55.36^∗∗ μg/L∗h
CLz/F [2, 3]: 81.37 ± 29.62^∗∗ L/h/Kg
Cmax [2, 3]: 8.94 ± 2.33^∗ μg/L
Tmax [2, 3]: 2.20 ± 1.98 h
Vz/F [2, 3]: 1395.19 ± 472.75^∗∗ L/kg
t1/2z [2, 3]: 12.56 ± 4.48 h
AUC(0-t) ([2]; P. ginseng-high (10 g/kg oral, 7 days), listed as mesaconitine): 126.07 ± 44.93 μg/L∗h
AUC(0-t) [2, 4]: 65.53 ± 9.06 μg/L∗h
AUC(0-∞) [2, 4]: 71.36 ± 12.85 μg/L∗h
CLz/F [2, 4]: 144.13 ± 26.77 L/h/kg
Cmax [2, 4]: 4.66 ± 1.03 µg/L
Tmax [2, 4]: 0.89 ± 0.60 h
Vz/F [2, 4]: 2386.47 ± 832.39 L/kg
t1/2z [2, 4]: 12.12 ± 6.11 h
AUC(0-t) [2, 5]: 82.45 ± 18.57^∗ μg/L∗h
AUC(0-∞) [2, 5]: 87.1 ± 21.80^∗ μg/L∗h
CLz/F [2, 5]: 120.75 ± 29.09^∗ L/h/Kg
Cmax [2, 5]: 6.02 ± 1.63 µg/L
Tmax [2, 5]: 1.83 ± 1.21 h
Vz/F [2, 5]: 1745.91 ± 488.37^∗ L/kg
t1/2z [2, 5]: 10.31 ± 3.00 h
AUC(0-t) ([2]; P. ginseng-middle (1 g/kg oral, 7 days), listed as mesaconitine): 82.45 ± 18.57 μg/L∗h
AUC(0-t) [2, 6]: 51.24 ± 21.48 μg/L∗h
AUC(0-∞) [2, 6]: 58.66 ± 27.59 μg/L∗h
CLz/F [2, 6]: 217.47 ± 130.54 L/h/kg
Cmax [2, 6]: 5.48 ± 2.61 µg/L
Tmax [2, 6]: 1.58 ± 1.32 h
Vz/F [2, 6]: 3146.87 ± 1886.84 L/kg
t1/2z [2, 6]: 13.17 ± 10.45 h
